Data published in patent publication US10730850B2, “Pyridinylmethyl carbamimidoylcarbamate derivatives and their use as AOC3 inhibitors” (Boehringer Ingelheim International GmbH, priority 2016, dated 2020).

System: hepatocytes
Assay: Metabolic stability assay in hepatocyte suspension
Assay type: in vitro ADME
Conditions: 1 μM test compound, Table 4
Procedure: The metabolic degradation of the test compound is assayed in a hepatocyte suspension. Hepatocytes (typically cryopreserved) are incubated in an appropriate buffer system (e.g. Dulbecco's modified eagle medium plus 3.5 μg glucagon/500 mL, 2.5 mg insulin/500 mL and 3.75 mg/500 mL hydrocortison) containing 5% species serum. Following a (typically) 30 min preincubation in an incubator (37° C., 10% CO2) 5 μl of test compound solution (80 μM; from 2 mM in DMSO stock solution diluted 1:25 with medium) are added into 395 μl hepatocyte suspension (cell density in the range 0.25-5 Mio cells/mL, typically 1 Mio cells/mL; final concentration of test compound 1 μM, final DMSO concentration 0.05%). The cells are incubated for six hours (incubator, orbital shaker) and samples (25 μl) are taken at 0, 0.5, 1, 2, 4 and 6 hours. Samples are transferred into acetonitrile and pelleted by centrifugation (5 min). The supernatant is transferred to a new 96-deepwell plate, evaporated under nitrogen and resuspended. Decline of parent compound is analyzed by HPLC-MS/MS
CLint is calculated as follows CL_INTRINSIC=Dose/AUC=(C0/CD)/(AUD+clast/k)×1000/60. C0: initial concentration in the incubation [μM], CD: cell density of vital cells [10e6 cells/mL], AUD: area under the data [μM×h], clast: concentration of last data point [μM], k: slope of the regression line for parent decline [h-1].
The calculated in vitro hepatic intrinsic clearance can be scaled up to the intrinsic in vivo hepatic Clearance and used to predict hepatic in vivo blood clearance (CL) by the use of a liver model (well stirred model). CL_INTRINSIC_INVIVO [ml/min/kg]=(CL_INTRINSIC [μL/min/10e6 cells]×hepatocellularity [10e6 cells/g liver]×liver factor [g/kg bodyweight])/1000 CL [ml/min/kg]=CL_INTRINSIC_INVIVO [ml/min/kg]×hepatic blood flow [ml/min/kg]/(CL_INTRINSIC_INVIVO [ml/min/kg]+hepatic blood flow [ml/min/kg])

Work on `CN(C)C(=O)c1ccc(N2CCN(c3nccc(COC(=O)NC(=N)N)c3F)CC2)cc1` [Example 1.100] yielded a QH of 9%.

Target: AOC3 (Homo sapiens (Human), UniProt Q16853)
Assay: MAO-Glo AOC3 assay (recombinant CHO cells overexpressing AOC3)
Assay type: biochemical
Conditions: Table 1, read-out: AOC3 IC50
Text: The MAO-Glo™ Assay (commercial available from PROMEGA, # V1402) provides a sensitive method for the measurement of monoamine oxidase (MAO) activity (Valley, M. P. et al., 2006, Anal. Biochem. 359: 238-246) from a variety of tissues, biofluids or recombinant expressed or purified enzymes. As substrate a derivate of the beetle luciferin ((4S)-4,5-dihydro-2-(6-hydroxybenzothiazolyl)-4-thiazole-carboxylic acid) is used, which is oxidized at a primary amine moiety. After a spontaneous elimination and a catalyzed esterase reaction, the turnover of the luciferine by the luciferase is recorded as a signal of AOC3 activity.
An aliquot of 3 μL of the compound dilution is added to a 384 well plate (Optiplate, PS, flat bottom, white, PERKIN ELMER, #6007290) with a final DMSO concentration of 6.6%. Recombinant CHO cells, overexpressing the human (1500 cells/well), mouse (1000 cells/well) or rat (500 cells/well) AOC3 enzyme are diluted in reaction buffer and added in a volume of 15 μL to the wells. After incubation for 20 minutes at 37° C., 2 μL of MAO substrate (dissolved in DMSO at 16 mM, adjusted to assay concentration in reaction buffer to a final assay concentration of 20 μM) is added and further incubated for 60 minutes at 37° C. The turnover of the substrate is determined by the addition of 20 μL of the detection-mix which was generated by the addition of reconstitution buffer with esterase (PROMEGA, # V1402) to the luciferine detection reagent (PROMEGA, # V1402). After an incubation period of 20 minutes, the luminescent signal is measured with Envision 2104 Multilabel Reader (PERKIN ELMER).
In the following table the activity expressed as IC50 (nM) of compounds according to the invention is presented wherein the IC50 values are determined in the MAO-Glo™ AOC3 assay as described hereinbefore. The term “Example” refers to the example numbers according to the following experimental section.

AOC3, sequence (Q16853 whole entry): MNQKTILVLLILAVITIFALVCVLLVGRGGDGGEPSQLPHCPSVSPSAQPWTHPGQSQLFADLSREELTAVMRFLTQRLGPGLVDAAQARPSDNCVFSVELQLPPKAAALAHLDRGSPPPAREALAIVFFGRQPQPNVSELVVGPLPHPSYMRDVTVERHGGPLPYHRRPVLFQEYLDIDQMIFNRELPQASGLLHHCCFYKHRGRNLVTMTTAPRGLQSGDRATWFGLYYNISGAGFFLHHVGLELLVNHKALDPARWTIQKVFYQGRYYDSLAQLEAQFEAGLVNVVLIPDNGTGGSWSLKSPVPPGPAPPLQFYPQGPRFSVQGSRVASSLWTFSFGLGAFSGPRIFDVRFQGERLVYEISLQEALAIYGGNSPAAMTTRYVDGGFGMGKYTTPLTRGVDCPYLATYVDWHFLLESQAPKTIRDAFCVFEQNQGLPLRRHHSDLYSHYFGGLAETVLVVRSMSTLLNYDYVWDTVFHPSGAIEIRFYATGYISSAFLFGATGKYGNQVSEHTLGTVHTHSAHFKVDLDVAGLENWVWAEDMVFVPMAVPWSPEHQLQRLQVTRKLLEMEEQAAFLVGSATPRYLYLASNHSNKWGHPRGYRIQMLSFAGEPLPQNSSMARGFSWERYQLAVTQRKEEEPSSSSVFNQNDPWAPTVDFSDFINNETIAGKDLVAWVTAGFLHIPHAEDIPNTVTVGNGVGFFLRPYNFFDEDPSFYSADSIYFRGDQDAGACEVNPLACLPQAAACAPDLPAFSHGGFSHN

Point of comparison: `N=C(N)NC(=O)OCc1ccnc(N2CCN(c3ccccn3)CC2)c1F` [Example 1.012], IC50 0.062 µM. Against it:
- CN(C)C(=O)c1ccc(N2CCN(c3nccc(COC(=O)NC(=N)N)c3F)CC2)cc1 [Example 1.100] — 12-fold lower, 0.005 µM
- N=C(N)NC(=O)OCc1ccnc(N2CCC3(CCc4ccccc43)CC2)c1F [Example 1.053] — within 1.5-fold, 0.083 µM
- CCOc1ccc(C2CCN(c3nccc(COC(=O)NC(=N)N)c3F)CC2)cn1 [Example 1.087] — 5.2-fold lower, 0.012 µM
- N=C(N)NC(=O)OCc1ccnc(N2CCN(c3ncccn3)CC2)c1F [Example 1.014] — 1.5-fold lower, 0.041 µM
- CC1CN(c2nccc(COC(=O)NC(=N)N)c2F)CCN1c1ccccc1 (stereo not drawn) [Example 1.035] — 4.4-fold lower, 0.014 µM
- N=C(N)NC(=O)OCc1ccnc(N2CCC(c3ccccc3)CC2)c1F [Example 1.008] — 4.1-fold lower, 0.015 µM
- N=C(N)NC(=O)OCc1ccnc(N2CC=C(c3ccccn3)CC2)c1F [Example 1.006] — 3.4-fold lower, 0.018 µM
- N=C(N)NC(=O)OCc1ccnc(N2CCN(c3nccs3)CC2)c1F [Example 1.024] — 3.4-fold lower, 0.018 µM
- CN(C)Cc1ccc(C2CCN(c3nccc(COC(=O)NC(=N)N)c3F)CC2)cc1 [Example 1.090] — 6.2-fold lower, 0.01 µM
- N#CC1CCN(C2CCN(c3nccc(COC(=O)NC(=N)N)c3F)CC2)CC1 [Example 1.070] — within 1.5-fold, 0.077 µM
- N=C(N)NC(=O)OCc1ccnc(N2CC=C(c3ncccn3)CC2)c1F [Example 1.007] — 1.5-fold higher, 0.096 µM
- N#Cc1ccc(N2CCN(c3nccc(COC(=O)NC(=N)N)c3F)CC2)c(C(F)(F)F)c1 [Example 1.105] — 2-fold lower, 0.031 µM
- Cc1ccc(C2CCN(c3nccc(COC(=O)NC(=N)N)c3F)CC2)cc1 [Example 1.029] — 6.9-fold lower, 0.009 µM
- N=C(N)NC(=O)OCc1ccnc(N2CCC(N3CCOCC3)CC2)c1F [Example 1.025] — within 1.5-fold, 0.092 µM
- N=C(N)NC(=O)OCc1ccnc(N2CCN(c3ccccc3F)CC2)c1F [Example 1.043] — 4.8-fold lower, 0.013 µM
- N=C(N)NC(=O)OCc1ccnc(N2CC(c3ccc(OCC4CC4)cc3)C2)c1F [Example 1.081] — 2.8-fold lower, 0.022 µM
- N=C(N)NC(=O)OCc1ccnc(N2CCN(c3ccc(C(F)(F)F)cc3)CC2)c1F [Example 1.097] — 5.6-fold lower, 0.011 µM
- N#Cc1ccc(N2CCN(c3nccc(COC(=O)NC(=N)N)c3F)CC2)cn1 [Example 1.057] — 21-fold lower, 0.003 µM
- N=C(N)NC(=O)OCc1ccnc(N2CC=C(c3ccccc3)CC2)c1F [Example 1.005] — 3.6-fold lower, 0.017 µM
- N=C(N)NC(=O)OCc1ccnc(N2CCN(c3ncc(C(F)(F)F)cn3)CC2)c1F [Example 1.098] — 4.1-fold lower, 0.015 µM
- COC(=O)c1ccc(N2CCN(c3nccc(COC(=O)NC(=N)N)c3F)CC2)nn1 [Example 1.094] — 4.4-fold lower, 0.014 µM
- N=C(N)NC(=O)OCc1ccnc(N2CC=C(c3ccc(Cl)cc3)CC2)c1F [Example 1.069] — 4.1-fold lower, 0.015 µM
- N=C(N)NC(=O)OCc1ccnc(N2CCN(c3ccccc3)CC2)c1F [Example 1.009] — 1.5-fold lower, 0.041 µM
- Cc1cnc(C2=CCN(c3nccc(COC(=O)NC(=N)N)c3F)CC2)nc1 [Example 1.030] — 2.7-fold lower, 0.023 µM
- N=C(N)NC(=O)OCc1ccnc(N2CCC(c3ncc(Cl)cn3)CC2)c1F [Example 1.079] — 5.6-fold lower, 0.011 µM
- N=C(N)NC(=O)OCc1ccnc(N2CCC(N3CCOC3=O)CC2)c1F [Example 1.026] — 1.8-fold higher, 0.111 µM
- N=C(N)NC(=O)OCc1ccnc(N2CC(c3ccccn3)C2)c1F [Example 1.002] — 2.8-fold higher, 0.172 µM
- N=C(N)NC(=O)OCc1ccnc(N2C3CCC2CC(c2ccccc2)C3)c1F (stereo not drawn) [Example 1.052] — within 1.5-fold, 0.084 µM
- N=C(N)NC(=O)OCc1ccnc(N2CCN(c3ccccc3Cl)CC2)c1F [Example 1.076] — 1.6-fold lower, 0.039 µM
- N#Cc1cnc(N2CCN(c3nccc(COC(=O)NC(=N)N)c3F)CC2)nc1 [Example 1.059] — 3.9-fold lower, 0.016 µM
- Cc1cnc(C2=CCN(c3nccc(COC(=O)NC(=N)N)c3F)CC2)o1 [Example 1.015] — 3.6-fold lower, 0.017 µM
- N=C(N)NC(=O)OCc1ccnc(N2CCC(N3CCCCC3=O)CC2)c1F [Example 1.046] — 2.1-fold higher, 0.128 µM
- Cc1cccc(C)c1N1CCN(c2nccc(COC(=O)NC(=N)N)c2F)CC1 [Example 1.060] — 3.5-fold higher, 0.217 µM
- N=C(N)NC(=O)OCc1ccnc(N2CC3CC2CN3c2cccc(F)c2)c1F (stereo not drawn) [Example 1.066] — 4.5-fold higher, 0.278 µM
- N=C(N)NC(=O)OCc1ccnc(N2CCC(c3ccc(C(=O)O)cc3)CC2)c1F [Example 1.082] — 31-fold lower, 0.002 µM
- N=C(N)NC(=O)OCc1ccnc(N2CCC(N3CCC(C(N)=O)CC3)CC2)c1F [Example 1.088] — within 1.5-fold, 0.048 µM
- N=C(N)NC(=O)OCc1ccnc(N2CCN(C3CCCC3)C(=O)C2)c1F [Example 1.021] — 2.4-fold lower, 0.026 µM
- CCc1ccc(N2CCN(c3nccc(COC(=O)NC(=N)N)c3F)CC2)cc1 [Example 1.062] — 5.6-fold lower, 0.011 µM
- N=C(N)NC(=O)OCc1ccnc(N2CCN(c3cccnn3)CC2)c1F [Example 1.013] — 2.8-fold lower, 0.022 µM
- Cc1cccc(C2CCN(c3nccc(COC(=O)NC(=N)N)c3F)CC2)c1 [Example 1.028] — 6.2-fold lower, 0.01 µM
- Cc1ccc(N2CCN(c3nccc(COC(=O)NC(=N)N)c3F)CC2)cc1 [Example 1.032] — 5.6-fold lower, 0.011 µM
- COC(=O)c1cnc(N2CCN(c3nccc(COC(=O)NC(=N)N)c3F)CC2)nc1 [Example 1.093] — 3.6-fold lower, 0.017 µM
- Cc1ccccc1N1CCN(c2nccc(COC(=O)NC(=N)N)c2F)CC1 [Example 1.034] — within 1.5-fold, 0.058 µM
- N=C(N)NC(=O)OCc1ccnc(N2CCC3(C=Cc4ccccc43)CC2)c1F [Example 1.049] — 2.8-fold lower, 0.022 µM
- N=C(N)NC(=O)OCc1ccnc(N2CCN(c3ncc(F)cn3)CC2)c1F [Example 1.045] — 2.6-fold lower, 0.024 µM
- Cc1ccc(N2CCN(c3nccc(COC(=O)NC(=N)N)c3F)CC2)cc1C [Example 1.063] — 4.8-fold lower, 0.013 µM
- N#Cc1ccc(C2CN(c3cccc(COC(=O)NC(=N)N)n3)C2)cc1 [Example 1.003] — 3.9-fold lower, 0.016 µM
- N=C(N)NC(=O)OCc1ccnc(N2CC=C(c3ncco3)CC2)c1F [Example 1.004] — 1.6-fold lower, 0.038 µM
- Cc1cnc(C2CCN(c3nccc(COC(=O)NC(=N)N)c3F)CC2)o1 [Example 1.019] — within 1.5-fold, 0.084 µM
- N=C(N)NC(=O)OCc1ccnc(N2CCC(c3cccc(Cl)c3)CC2)c1F [Example 1.075] — 4.4-fold lower, 0.014 µM
- N=C(N)NC(=O)OCc1ccnc(N2CCC(C3CCCCC3)CC2)c1F [Example 1.020] — 1.8-fold lower, 0.035 µM
- COc1cnc(N2CCN(c3nccc(COC(=O)NC(=N)N)c3F)CC2)nc1 [Example 1.073] — 6.2-fold lower, 0.01 µM
- Cc1ccc(N2CCN(c3nccc(COC(=O)NC(=N)N)c3F)CC2)nc1 [Example 1.038] — 4.4-fold lower, 0.014 µM
- COc1cnc(C2CCN(c3nccc(COC(=O)NC(=N)N)c3F)CC2)nc1 [Example 1.071] — 7.8-fold lower, 0.008 µM
- N=C(N)NC(=O)OCc1ccnc(N2CCN(c3ncncn3)CC2)c1F [Example 1.018] — 3.6-fold lower, 0.017 µM
- N=C(N)NC(=O)OCc1ccnc(N2CC(c3ccccc3)C2)c1F [Example 1.001] — 1.6-fold higher, 0.098 µM
- N=C(N)NC(=O)OCc1ccnc(N2CCC(c3nccs3)CC2)c1F [Example 1.022] — within 1.5-fold, 0.049 µM
- N=C(N)NC(=O)OCc1ccnc(N2CCC(c3ccc(C(F)(F)F)cc3)CC2)c1F [Example 1.096] — 5.2-fold lower, 0.012 µM
- CC(C)(C)OC(=O)N1CC(C2CCN(c3nccc(COC(=O)NC(=N)N)c3F)CC2)C1 [Example 1.102] — within 1.5-fold, 0.065 µM
- N=C(N)NC(=O)OCc1ccnc(N2CCC(N3CC[S+]([O-])CC3)CC2)c1F [Example 1.080] — within 1.5-fold, 0.086 µM
- N=C(N)NC(=O)OCc1ccnc(N2CC=C(c3ncc(F)cn3)CC2)c1F [Example 1.042] — 2.2-fold lower, 0.028 µM
